Results reported in US20240101584A1, “TARGETED DELIVERY OF 1,2,4,5 TETRAOXANE COMPOUNDS AND THEIR USES” (Westlake University, priority 2021, published 2024).
Like-named read-outs stand apart in the source and are kept apart here.

What was measured:
MDA-MB-231 cells = experiment: MTT viability assay, MDA-MB-231 cells; type: cell-based; conditions: for IC50: Homo sapiens
Protocol: (§1) The anticancer activities of the exemplary compounds listed in Example 1 were tested against human cervix Hela cells, mammary breast cancer MDA-MB-231 cells, human hepatocellular HepG2 cells, human colorectal HCT116 cells, mammary ductal T47D cells, non-cancerous NIH3T3 cells, dog's kidney MDCK cells, and mouse brain bEnd.3 cells, respectively.

Hela cells = experiment: MTT viability assay, Hela cells; type: cell-based, human; conditions: Homo sapiens, HeLa, 48 h incubation, mean, n = 3, read-out: IC50 against Hela cells
Protocol: as §1

T47D cells = experiment: MTT viability assay, T47D cells; type: cell-based; conditions: for IC50: Homo sapiens, T47D
Protocol: as §1

NIH3T3 cells = experiment: MTT viability assay, non-cancerous NIH3T3 cells; type: cell-based; conditions: Mus musculus, NIH3T3
Protocol: as §1

MDCK cells = experiment: MTT viability assay, MDCK cells; type: cell-based, dog; conditions: Canis lupus familiaris, MDCK, 48 h incubation, mean, n = 3, read-out: IC50 against MDCK cells
Protocol: as §1

HCT116 cells = experiment: MTT viability assay, HCT116 cells; type: cell-based, human; conditions: for IC50: Homo sapiens, HCT-116
Protocol: as §1

[1] = MDA-MB-231, 48 h, MTT, 48 h incubation, mean, n = 3, read-out: IC50 against MDA-MB-231 cells
[2] = MTT, 48 h incubation, mean, n = 3, read-out: IC50 against T47D cells
[3] = MTT, 48 h incubation, mean, n = 3, read-out: IC50 against NIH3T3 cells
[4] = MDA-MB-231, Table 12b, read-out: IC50 MDA-MB-231
[5] = Table 12b, read-out: IC50 NIH3T3
[6] = MTT, 48 h incubation, mean, n = 3, read-out: IC50 against HCT116 cells
[7] = Table 12b, read-out: IC50 HCT116

Compound	IC50 (MDA-MB-231 cells; [1])	IC50 (NIH3T3 cells; [3])	IC50 (HCT116 cells; [6])	further results
CC(C)(C)C1CCC2(CC1)OOC1(CCC(OC(=O)NCCCN(Cc3ccccc3)Cc3ccccc3)CC1)OO2 (stereo not shown) [Compound 37d, 12-(tert-butyl)-7,8,15,16-tetraoxadispiro[5.2.59.26]hexadecan-3-yl(3-(dibenzylamino)propyl)carbamate]	31.7 µM	30.3 µM	–	IC50 (Hela cells): 24.8 µM; IC50 (T47D cells; [2]): 10.4 µM; IC50 (MDCK cells): > 100 µM
CN(CCCNC(=O)OC1CCC2(CC1)OOC1(CCC(C(C)(C)C)CC1)OO2)Cc1ccccc1 (stereo not shown) [Compound 37e, 12-(tert-butyl)-7,8,15,16-tetraoxadispiro[5.2.59.26]hexadecan-3-yl(3-(benzyl(methyl)amino)propyl)carbamate]	1.7 µM	1.9 µM	–	IC50 (Hela cells): 1.7 µM; IC50 (T47D cells; [2]): 1.2 µM; IC50 (MDCK cells): 19.3 µM
CC(C)(C)C1CCC2(CC1)OOC1(CCC(OC(=O)N3CCNCC3)CC1)OO2 (stereo not shown) [Compound 37f, 12-(tert-butyl)-7,8,15,16-tetraoxadispiro[5.2.59.26]hexadecan-3-yl piperazine-1-carboxylate]	< 4 µM	11.6 µM	–	IC50 (MDA-MB-231 cells; [4]): 2.9 ± 0.8 µM; selectivity index (IC50 of NIH3T3 divided by IC50 on MDA-MB-231) (MDA-MB-231 cells; Table 12b, value in bracket): (>4); IC50 (Hela cells): 3.1 µM; IC50 (T47D cells; [2]): 1.3 µM; IC50 (T47D cells; Table 12b, read-out: IC50 T47D): 1.3 ± 0.6 µM; selectivity index (IC50 of NIH3T3 divided by IC50 on T47D) (T47D cells; Table 12b, value in bracket): (>8.9); IC50 (NIH3T3 cells; [5]): 11.6 ± 2.4 µM; IC50 (MDCK cells): 12.4 µM
CC(=O)OC[C@H]1O[C@@H](OCCCCNC(=O)OC2CCC3(CC2)OOC2(CCC(C(C)(C)C)CC2)OO3)[C@H](OC(C)=O)[C@@H](OC(C)=O)[C@@H]1OC(C)=O (stereo partly drawn) [Compound 37h, (2R,3R,4S,5R,6R)-2-(acetoxymethyl)-6-(4-((((12-(tert-butyl)-7,8,15,16-tetraoxadispiro[5.2.59.26]hexadecan-3-yl)oxy)carbonyl)amino)butoxy)tetrahydro-2H-pyran-3,4,5-triyl triacetate]	–	–	–	IC50 (MDA-MB-231 cells; MDA-MB-231, 48 h, Table 13, experimental data, MTT, 48 hrs, n = 3, read-out: IC50 MDA-MB-231): 0.4 ± 0.05 µM; selectivity index (IC50 of NIH3T3 divided by IC50 on MDA-MB-231) (MDA-MB-231 cells; Table 13, value in bracket): (>11); IC50 (T47D cells; Table 13, experimental data, MTT, 48 hrs, n = 3, read-out: IC50 T47D): 0.6 ± 0.1 µM; selectivity index (IC50 of NIH3T3 divided by IC50 on T47D) (T47D cells; Table 13, value in bracket): (>7); IC50 (NIH3T3 cells; Table 13, experimental data, MTT, 48 hrs, n = 3, read-out: IC50 NIH3T3): 4.6 ± 1.9 µM; IC50 (HCT116 cells; Table 13, experimental data, MTT, 48 hrs, n = 3, read-out: IC50 HCT116): 0.6 ± 0.3 µM; selectivity index (IC50 of NIH3T3 divided by IC50 on HCT116) (HCT116 cells; Table 13, value in bracket): (>7)
CC(C)(C)C1CCC2(CC1)OOC1(CCC(OC(=O)NCCC[N+](C)(C)C)CC1)OO2 (stereo not shown) [Compound 49, 3-((((12-(tert-butyl)-7,8,15,16-tetraoxadispiro[5.2.59.26]hexadecan-3-yl)oxy)carbonyl)amino)-N,N,N-trimethylpropan-1-aminium iodide]	31.5 µM	> 50 µM	> 50 µM	–
C[n+]1ccc(CNC(=O)OC2CCC3(CC2)OOC2(CCC(C(C)(C)C)CC2)OO3)cc1 (stereo not shown) [Compound 50, 4-(((((12-(tert-butyl)-7,8,15,16-tetraoxadispiro[5.2.59.26]hexadecan-3-yl)oxy)carbonyl)amino)methyl)-1-methylpyridin-1-ium iodide]	19.2 µM	44.9 µM	> 25 µM	–
CC(C)(C)C1CCC2(CC1)OOC1(CCC(OC(=O)N3CC[N+](C)(C)CC3)CC1)OO2 (stereo not shown) [Compound 51, 4-(((12-(tert-butyl)-7,8,15,16-tetraoxadispiro[5.2.59.26]hexadecan-3-yl)oxy)carbonyl)-1,1-dimethylpiperazin-1-ium iodide]	26.1 µM	> 25 µM	> 50 µM	–
CCCC[N+](C)(CCCC)CCCNC(=O)OC1CCC2(CC1)OOC1(CCC(C(C)(C)C)CC1)OO2.[I-] (stereo not shown) [Compound 53, N-butyl-N-(3-((((12-(tert-butyl)-7,8,15,16-tetraoxadispiro[5.2.59.26]hexadecan-3-yl)oxy)carbonyl)amino)propyl)-N-methylbutan-1-aminium iodide]	< 4 µM	33.7 µM	6.7 µM	IC50 (MDA-MB-231 cells; [4]): 3.7 ± 0.4 µM; selectivity index (IC50 of NIH3T3 divided by IC50 on MDA-MB-231) (MDA-MB-231 cells; Table 12b, value in bracket): (>9.1); IC50 (NIH3T3 cells; [5]): 33.7 ± 3.4 µM; IC50 (HCT116 cells; [7]): 6.7 ± 1.4 µM; selectivity index (IC50 of NIH3T3 divided by IC50 on HCT116) (HCT116 cells; Table 12b, value in bracket): (>5)
CC(C)(C)C1CCC2(CC1)OOC1(CCC(OC(=O)NCCC[N+](C)(C)Cc3ccccc3)CC1)OO2 (stereo not shown) [Compound 54, N-benzyl-3-((((12-(tert-butyl)-7,8,15,16-tetraoxadispiro[5.2.59.26]hexadecan-3-yl)oxy)carbonyl)amino)-N,N-dimethylpropan-1-aminium iodide]	14.7 µM	> 50 µM	26.2 µM	–
CCCC[P+](CCCC)(CCCC)CCCNC(=O)OC1CCC2(CC1)OOC1(CCC(C(C)(C)C)CC1)OO2.[Br-] (stereo not shown) [Compound 56, tributyl(3-((((12-(tert-butyl)-7,8,15,16-tetraoxadispiro[5.2.59.26]hexadecan-3-yl)oxy)carbonyl)amino)propyl)phosphonium bromide]	–	11.1 µM	2.7 µM	IC50 (MDA-MB-231 cells; [4]): 0.97 ± 0.1 µM; selectivity index (IC50 of NIH3T3 divided by IC50 on MDA-MB-231) (MDA-MB-231 cells; Table 12b, value in bracket): (>11.4); IC50 (NIH3T3 cells; [5]): 11.1 ± 0.6 µM; IC50 (HCT116 cells; [7]): 2.7 ± 0.3 µM; selectivity index (IC50 of NIH3T3 divided by IC50 on HCT116) (HCT116 cells; Table 12b, value in bracket): (>4.1)
CC(C)(C)C1CCC2(CC1)OOC1(CCC(OC(=O)NCCC[N+](Cc3ccccc3)(Cc3ccccc3)Cc3ccccc3)CC1)OO2 (stereo not shown) [Compound 57, N,N,N-tribenzyl-3-((((12-(tert-butyl)-7,8,15,16-tetraoxadispiro[5.2.59.26]hexadecan-3-yl)oxy)carbonyl)amino)propan-1-aminium iodide]	2.9 µM	9.8 µM	–	–
OC1CCC2(CC1)OOC1(CCCCC1)OO2 [Compound 59, 7,8,15,16-tetraoxadispiro[5.2.59.26]hexadecan-3-ol]	> 50 µM	–	–	–
C[N+](CCCNC(=O)OC1CCC2(CC1)OOC1(CCCCC1)OO2)(Cc1ccccc1)Cc1ccccc1 [Compound 59a, 3-((((7,8,15,16-tetraoxadispiro[5.2.59.26]hexadecan-3-yl)oxy)carbonyl)amino)-N,N-dibenzyl-N-methylpropan-1-aminium iodide]	10.4 µM	–	–	–
O=C(NCCC[P+](c1ccccc1)(c1ccccc1)c1ccccc1)OC1CCC2(CC1)OOC1(CCCCC1)OO2 [Compound 59b, (3-((((7,8,15,16-tetraoxadispiro[5.2.59.26]hexadecan-3-yl)oxy)carbonyl)amino)propyl)triphenylphosphonium bromide]	1.9 µM	–	–	–
C#CCCNC(=O)OCC(C)(C)C1CCC2(CC1)OOC1(CCC(O)CC1)OO2 [Compound alk-L-37, 2-(12-hydroxy-7,8,15,16-tetraoxadispiro[5.2.59.26]hexadecan-3-yl)-2-methylpropyl but-3-yn-1-ylcarbamate]	24.5 µM	–	–	–
C#CCCNC(=O)OCC(C)(C)C1CCC2(CC1)OOC1(CCC(OC(=O)NCCC[P+](c3ccccc3)(c3ccccc3)c3ccccc3)CC1)OO2 [Compound alk-L-37b, (3-((((12-(1-((but-3-yn-1-ylcarbamoyl)oxy)-2-methylpropan-2-yl)-7,8,15,16-tetraoxadispiro[5.2.59.26]hexadecan-3-yl)oxy)carbonyl)amino)propyl)triphenylphosphonium bromide]	2.1 µM	12.9 µM	–	–
C#CCCNC(=O)OCC(C)(C)C1CCC2(CC1)OOC1(CCC(OC(=O)NCCC[N+](C)(Cc3ccccc3)Cc3ccccc3)CC1)OO2 [Compound alk-L-48, N,N-dibenzyl-3-((((12-(1-((but-3-yn-1-ylcarbamoyl)oxy)-2-methylpropan-2-yl)-7,8,15,16-tetraoxadispiro[5.2.59.26]hexadecan-3-yl)oxy)carbonyl)amino)-N-methylpro pan-1-aminium iodide]	8.8 µM	18.2 µM	–	–
C#CCCN(CCC[P+](c1ccccc1)(c1ccccc1)c1ccccc1)C(=O)OC1CCC2(CC1)OOC1(CCC(C(C)(C)C)CC1)OO2 (stereo not shown) [Compound alk-R-37b, (3-(but-3-yn-1-yl(((12-(tert-butyl)-7,8,15,16-tetraoxadispiro[5.2.59.26]hexadecan-3-yl)oxy)carbonyl)amino)propyl)triphenylphosphonium bromide]	2.3 µM	9.7 µM	–	–
C#CCCN(CCC[N+](C)(Cc1ccccc1)Cc1ccccc1)C(=O)OC1CCC2(CC1)OOC1(CCC(C(C)(C)C)CC1)OO2.[I-] (stereo not shown) [Compound alk-R-48, N,N-dibenzyl-3-(but-3-yn-1-yl(((12-(tert-butyl)-7,8,15,16-tetraoxadispiro[5.2.59.26]hexadecan-3-yl)oxy)carbonyl)amino)-N-methylpropan-1-aminium iodide]	–	10.8 µM	–	IC50 (MDA-MB-231 cells; [4]): 0.8 ± 0.2 µM; selectivity index (IC50 of NIH3T3 divided by IC50 on MDA-MB-231) (MDA-MB-231 cells; Table 12b, value in bracket): (>13); IC50 (NIH3T3 cells; [5]): 10.8 ± 3.7 µM
